Data as given in PubChem BioAssay (NCI).
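Cells were grown in 96-well plates and exposed to each compound for 48 hours at five concentrations; endpoints were interpolated linearly between bracketing concentrations, or set to the highest concentration if not reached. At the GI50, growth is halved. TGI is the concentration that stops growth completely.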

Legend:
Assay in all cases: NCI anticancer screen, dose series, 48 h
HCT-15 colon = tested on: HCT-15 colon
HL-60(TB) leukemia = tested on: HL-60(TB) leukemia
LOX IMVI melanoma = tested on: LOX IMVI melanoma
MCF7 breast = tested on: MCF7 breast
MDA-MB-231 breast = tested on: MDA-MB-231 breast
NCI/ADR-RES ovarian = tested on: NCI/ADR-RES ovarian
SF-295 CNS = tested on: SF-295 CNS
SF-539 CNS = tested on: SF-539 CNS
U251 CNS = tested on: U251 CNS
M14 melanoma = tested on: M14 melanoma

SMILES | GI50 (HCT-15 colon) [µM] | TGI (HCT-15 colon) [µM] | GI50 (HL-60(TB) leukemia) [µM] | TGI (HL-60(TB) leukemia) [µM] | GI50 (LOX IMVI melanoma) [µM] | TGI (LOX IMVI melanoma) [µM] | GI50 (MCF7 breast) [µM] | TGI (MCF7 breast) [µM] | GI50 (MDA-MB-231 breast) [µM] | TGI (MDA-MB-231 breast) [µM] | GI50 (NCI/ADR-RES ovarian) [µM] | TGI (NCI/ADR-RES ovarian) [µM] | GI50 (SF-295 CNS) [µM] | TGI (SF-295 CNS) [µM] | GI50 (SF-539 CNS) [µM] | TGI (SF-539 CNS) [µM] | GI50 (U251 CNS) [µM] | TGI (U251 CNS) [µM] | TGI (M14 melanoma) [µM] | GI50 (M14 melanoma) [µM]
CN(c1cccc(C(=O)O)c1)c1cc(O/N=[N+](\[O-])N(C)C)c([N+](=O)[O-])cc1[N+](=O)[O-] | > 100 | > 100 | 72.2 | > 100 | 47.6 | > 100 | 59.8 | > 100 | > 100 | > 100 | > 100 | > 100 | > 100 | > 100 | > 100 | > 100 | > 100 | > 100 |  | 
CC1(Cl)C(=O)NC(=O)N([C@H]2C[C@H](O)[C@@H](CO)O2)C1N=[N+]=[N-] (stereo not given in full) |  | > 100 |  | > 100 |  | > 100 |  |  |  |  |  |  |  | > 100 |  | > 100 |  | > 100 | > 100 | 
COc1ccc(-c2cc(=O)c3c(O)c(O)c(OC)cc3o2)cc1O |  | > 100 |  | > 100 |  | > 100 |  |  |  |  |  |  |  | > 100 |  | > 100 |  | > 100 | > 100 | 
COc1ccc(-n2nc(C)c3c(Nc4ccc(NC(=O)Nc5cccc(C(F)(F)F)c5)cc4)ncnc32)cc1 | 1.46 | 3.27 | 2.31 | 5.51 | 1.3 | 2.65 | 2.05 | 5.57 | 1.46 | 3.14 | 1.81 | 4.72 | 1.67 | 3.3 | 1.28 | 2.66 | 1.08 | 2.35 | 3.36 | 1.54
Cc1cccc(CNc2c3ccccc3nc3ccccc23)c1 | 1.83 | 4.59 | 2.26 | 5.28 | 1.49 | 2.9 | 1.9 | 4.88 | 1.65 | 4.07 | 1.85 | 5.97 | 2.13 | 6.67 | 1.67 | 3.14 | 1.96 | 5.54 | 3.35 | 1.57
O=C(NCCCN1CCN(CCCNC(=O)c2cccc3ccccc23)CC1)c1cccc2ccccc12 |  | > 100 |  | > 100 |  | > 100 |  |  |  |  |  |  |  | > 100 |  | > 100 |  | > 100 | > 100 | 
Cc1cc(NS(=O)(=O)c2ccc(NC(=O)c3ccc(Cl)c4c(Nc5ccc(S(=O)(=O)Nc6cc(C)on6)cc5)c5ccccc5nc34)cc2)no1 |  | 43 |  | 49.5 |  | 41.6 |  |  |  |  |  |  |  | 57.4 |  | 32.3 |  | 32.8 | 49.4 | 
COC(=O)c1csc(-c2csc(CCNC(=O)OC(C)(C)C)n2)n1 |  | > 100 |  | > 100 |  |  |  | > 100 |  |  |  | > 100 |  | > 100 |  | > 100 |  | > 100 | > 100 | 
COC(=O)NC1(NC(=O)OC)NC(=O)c2ccccc2N1 |  | > 100 |  | > 100 |  |  |  | > 100 |  | > 100 |  | > 100 |  | > 100 |  | > 100 |  |  | > 100 | 
O=[N+]([O-])c1ccc(Sc2cccc[n+]2[O-])c2nonc12 | 3.03 | 14.7 |  |  | 3.28 | 11.7 | 1.77 | 10.8 | 4.7 | 16 | 5.73 | > 52.7 | 3.37 | 43.7 | 19.3 | 54.3 | 3.56 | 17.6 | 16.4 | 4.32
CC1=CC(=O)NP(=O)(Oc2ccc(Cl)cc2)N1 (stereo not given) |  | > 100 |  | > 100 |  | > 100 |  |  |  |  |  |  |  | > 100 |  | > 100 |  | > 100 | > 100 | 
O=C(O)/C=C/c1c2ccc(=O)c(O)c-2oc2c(O)c(O)ccc12 |  | > 100 |  | > 100 |  | 62.2 |  | 34.8 |  | 66.5 |  | > 100 |  | 55 |  |  |  | 35.3 | > 100 | 
CC(C)(C)OC(=O)N(CCCCN(CCCn1c2c(c3ccccc3c1=O)C(=O)c1ccccc1-2)C(=O)OC(C)(C)C)CCCn1c2c(c3ccccc3c1=O)C(=O)c1ccccc1-2 | 23.4 | > 100 | > 100 | > 100 | 18.6 | > 100 |  |  | 13.9 | 47.2 | 30.1 | > 100 | 14 | > 100 | 8.79 | 33.1 | 27.2 | > 100 | > 100 | 31.3
CNc1c2ccccc2nc2occ(Cl)c12 | 33.8 | > 100 |  |  | 25.5 | 75.2 | 32.3 | > 100 |  |  | 30.1 | > 100 | 20.6 | 88.2 |  |  | 31.4 | > 100 | > 100 | 37.2
CCCCC[C@@H]1CCCC2NC(CCCCCO[Si](c3ccccc3)(c3ccccc3)C(C)(C)C)CCC21 (stereo not given in full) |  | 25.7 |  | 23 |  | 28.1 |  |  |  |  |  |  |  | 31.3 |  | 29.8 |  | 27.8 | 27.3 | 
COCN1COCN(C)C1=O |  | > 100 |  |  |  | > 100 |  |  |  |  |  |  |  | > 100 |  | > 100 |  | > 100 | > 100 | 
COc1ccccc1/C=C1\C(=O)N(C(=O)Cc2ccccc2)N=C1C |  | > 100 |  | > 100 |  | > 100 |  |  |  |  |  |  |  | > 100 |  | > 100 |  | > 100 | > 100 | 
C=CCCC(O)c1cc(C)c(O)c(C)c1 (stereo not given) |  | > 100 |  | > 100 |  | > 100 |  |  |  |  |  |  |  | > 100 |  | > 100 |  | > 100 | > 100 | 
